Literature values, collected in patent publication US20030203043A1 (priority 2002, published 2003).
Like-named read-outs stand apart in the source and are kept apart here.

What was measured:
[1] = female rats
[2] = compared with placebo
[3] = in vivo
[4] = in vivo; remark: listed apart in the source
aromatase = target: T1, aromatase (Homo sapiens, UniProt P11511); conditions: relative to chrysin, AG, ANG
T1 sequence (P11511 1-503): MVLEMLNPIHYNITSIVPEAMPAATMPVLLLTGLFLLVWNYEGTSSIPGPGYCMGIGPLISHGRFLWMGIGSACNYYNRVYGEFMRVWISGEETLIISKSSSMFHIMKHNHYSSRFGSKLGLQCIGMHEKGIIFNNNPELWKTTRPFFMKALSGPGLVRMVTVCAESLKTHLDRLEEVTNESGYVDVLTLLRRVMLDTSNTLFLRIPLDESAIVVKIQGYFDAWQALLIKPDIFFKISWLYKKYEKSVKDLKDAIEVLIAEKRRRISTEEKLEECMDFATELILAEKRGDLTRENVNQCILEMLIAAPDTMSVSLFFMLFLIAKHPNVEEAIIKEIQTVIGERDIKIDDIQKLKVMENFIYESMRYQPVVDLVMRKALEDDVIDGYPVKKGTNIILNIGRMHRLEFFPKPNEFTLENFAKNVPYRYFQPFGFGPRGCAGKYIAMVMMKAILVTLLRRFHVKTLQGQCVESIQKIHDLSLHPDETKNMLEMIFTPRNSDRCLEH

[5] = hypogonadal men; for waking erection: Asian group; for sexual interest and activity, spontaneous erection: Caucasian group
[6] = 300 mg/wk, six weeks; TE shoulders; ND shoulders and chest
[7] = pharmacological doses
[8] = supplementation
[9] = prostate and seminal vesicle weights
[10] = levator ani muscles
[11] = not given; remark: listed apart in the source

In the case of `C[C@]12CC[C@H]3[C@@H](CCC4=CC(=O)CC[C@@]43C)[C@@H]1CC[C@@H]2O` [Testosterone], the “lipid deposition or heat production” value [1] is given as “did not have a significant effect” and the “proportion of protein in the body composition” value [1] is given as “increased the proportion of protein”.

In the case of `C[C@]12CC[C@H]3[C@@H](CCC4=CC(=O)CC[C@@H]43)[C@@H]1CCC2=O` [19-nor-androstenedione], the excretion products (in vivo) is given as “excreted mainly as nor-androsterone and nor-etiocholanolone”.

For `C[C@]12CC[C@H]3[C@@H](CCC4=CC(=O)CC[C@@H]43)[C@@H]1CC[C@@H]2O` [nandrolone, 19-nor-testosterone], the energy expenditure [1] is listed as “increased energy expenditure”, the lean body mass [2] is listed as “increased significantly” and the “decrease in HDL-cholesterol” value [3] is listed as 25-27%. The effect on sperm [4] was “azoospermia”.

In the case of `COc1ccc(-c2coc3cc(O)cc(O)c3c2=O)cc1` [Biochanin A, 5,7-dihydroxy-4′-methoxyisoflavone], the aromatase inhibition (aromatase) is listed as “inhibited aromatase, but to a lesser degree”.

For `C[C@]12CC[C@H]3[C@@H](CCC4=C[C@@H](O)CC[C@@]43C)[C@@H]1CC[C@@H]2O` [4-androstenediol], the “urine testosterone concentration relative to 4-androstenedione” value (supplementation) is listed as 10 fold.

For `CCCCCCC(=O)O[C@H]1CC[C@H]2[C@@H]3CCC4=CC(=O)CC[C@]4(C)[C@H]3CC[C@]12C` [TE, testosterone enanthate], the waking erection [5] is listed as “increased waking erection”, the “sexual interest and activity, spontaneous erection” value [5] is listed as “significant increases” and the body circumferences [6] is listed as “significant increases”.

In the case of `C[C@]12CC[C@H]3[C@@H](CC=C4C[C@@H](O)CC[C@@]43C)[C@@H]1CC[C@@H]2O` [5-androstenediol], the “lipid deposition or heat production” value [1] is given as “did not have a significant effect” and the “proportion of protein in the body composition” value [1] is given as “increased the proportion of protein”.

For `CCCCCCCCCC(=O)O[C@H]1CC[C@H]2[C@@H]3CCC4=CC(=O)CC[C@@H]4[C@H]3CC[C@]12C` [nandrolone decanoate], the “total weight, lean body mass, body cell mass, muscle size, and strength” value [7] is given as “significant gains” and the body circumferences [6] is given as “significant increases”.

In the case of `C[C@]12CCC(=O)C=C1CC[C@@H]1[C@@H]2CC[C@]2(C)C(=O)CC[C@@H]12` [4-androstenedione], the serum testosterone [8] is given as “elevations in serum testosterone”.

For `C[C@@H]1CC2=CC(=O)CC[C@@H]2[C@H]2CC[C@]3(C)[C@@H](O)CC[C@H]3[C@@H]21` [MENT, 7α-methyl-19-nor-testosterone], the “androgenic potency relative to testosterone” value [9] is given as “four- to five-times”, the waking erection [5] is given as “increased waking erection” and the “sexual interest and activity, spontaneous erection” value [5] is given as “significant increases”. For the same compound, the “anabolic potency relative to testosterone” value [10] was “ten-times”.

For `C[C@]12CC[C@H](O)CC1=CC[C@@H]1[C@@H]2CC[C@]2(C)C(=O)CC[C@@H]12` [DHEA, dehydro-epiandrosterone], the plasma testosterone ([11]; 50 mg dose) is listed as “levels similar to those observed in young women”, the “delta 5-androstenediol plasma level” value ([11]; 50 mg or 200 mg DHEA) is listed as “small increase” and the “increase of plasma delta 4-androstenedione” value ([11]; 50 mg or 200 mg DHEA) is listed as “significant and dose dependent”. For the same compound, the “plasma estrogens, particularly estradiol” value ([11]; 50 mg or 200 mg DHEA) was “significant and dose dependent increase”, the plasma testosterone ([11]; 200 mg dose) was “slightly below the levels observed in normal men” and the “increase of plasma dihydrotestosterone levels” value ([11]; both doses) was “small”.
